This note sets out measurements from US6653442B1, “Protegrins” (priority 1993, dated 2003).

Square brackets hold non-standard residues; d marks the D form. Ends that are not written are not given here.

In assay [1] the test system is C. albicans, strain 820. Format: cell-based, Candida albicans.
Method: Similarly, using C. albicans as a target organism, underlayers were prepared with 10 mM sodium phosphate with and without 10% normal human serum.
Assay [2] has as its system lipid polysaccharide (LPS) of E. coli strain 0.55B5. Description: Limulus amebocyte lysate (LAL) test for endotoxin binding. Format: biochemical. The conditions noted are these: LPS 0.05 endotoxin unit/ml.
Assay [3] concerns Pseudomonas aeruginosa (Psa). Description: Minimal inhibitory concentration, Psa. Format: cell-based. As to the method:
(§1) The minimal inhibitory concentrations (MICs) of a variety of protegrins were determined against the following organisms: methicillin resistant Staphylococcus aureus (MRSA), Pseudomonas aeruginosa (Psa), vancomycin resistant Enterococcus fecium (VREF), Candida albicans (Candid) and Escherichia coli (E. Co), and are shown in Table 9.

Assay [4] has as its system methicillin resistant Staphylococcus aureus (MRSA). Description: Minimal inhibitory concentration, MRSA. Type of assay: cell-based. The protocol: as §1
Assay [5] has as its system Candida albicans (Candid). Description: Minimal inhibitory concentration, Candida. Format: cell-based. The protocol: as §1
Assay [6] deals with Escherichia coli (E. Co). Description: Minimal inhibitory concentration, E. coli. Type of assay: cell-based. As to the method: as §1
Assay [7] relates to Listeria monocytogenes, strain EGD. Description: Radial diffusion assay in agarose gels, L. monocytogenes. Format: cell-based. The protocol:
Aliquots (66 μl) of each fraction were dried by vacuum centrifugation and resuspended in 6.6 μl of 0.01% acetic acid. Five μl samples of this concentrate were tested for antimicrobial activity against E. coliML-3, L. monocytogenes, strain EGD and C. albicans, strain 820, using radiodiffusion and gel overlay techniques as described by Lehrer, R. I. et al. J Immunol Meth (1991) 137:167-173. […] The units of activity in the radial diffusion assay were measured as described; 10 units correspond to a 1 mm diameter clear zone around the sample well. Activity was found in a large number of fractions.
The radial diffusion assay in agarose gels described in Example 1 was also used to test the activity of the purified protegrins. FIGS. 4a, 4b and 4c show the results against three test organisms in units described as above.
The antimicrobial activity of the linearalized forms was also compared with that of the native protegrins. Both linearalized and cyclic forms of the protegrins tested continue to show antimicrobial activity, although the effectiveness of these peptides as antimicrobials depends on the nature of the target organism and on the test conditions. The antimicrobial activity of native PG-1 and its linearalized form (cam-PG-1) and PG-3 and its linearalized form (cam-PG-3) were tested according to the procedure set forth in Example 1 as described by Lehrer, R. I. et al. J Immunol Meth (1991) 137:167-173.
Using standard solid phase techniques, a protegrin having the amino acid sequence of PG-1, but wherein every amino acid is in the D form was prepared. This form of protegrin was tested against E. coli, L. monocytogenes, C. albicans and other microbes in the absence and presence of protease and otherwise as described for the radiodiffusion assay in agarose gels set forth in Example 1.
The kite and bullet PG-1 compounds prepared in Example 12 were tested for antimicrobial activity using the radial diffusion assay described in Example 1 as published by Lehrer, R. I. et al., J Immunol Meth (1991) 137:167-173, except that the underlay agars contained […] sodium phosphate buffer with a final pH of 7.4. As described in Example 1, 0.3 mg/ml tripticase soy broth powder and 1% agarose were used as well in the underlay agar. In some cases 100 mM NaCl or RPMI plus 2.5% normal human serum (NHS) was added to the agar.

Assay [8] has as its system E. coli ML-35P. Description: Radial diffusion assay in agarose gels, E. coli. Type of assay: cell-based.
Method: Aliquots (66 μl) of each fraction were dried by vacuum centrifugation and resuspended in 6.6 μl of 0.01% acetic acid. […] The units of activity in the radial diffusion assay were measured as described; 10 units correspond to a 1 mm diameter clear zone around the sample well.
In assay [9] the test system is Trichomonas vaginallis strain C1 (ATCC 30001); strains MR and TV. Description: Trichomonas vaginallis exposure assay. To be noted: strains MR and TV; 100 and 50 μg/ml.

“HNP-2: native human defensin used as control (CYCRIPACIAGERRYGTCIYQGRLWAFCC; ends and bridges not checked; cysteine pairing not given here; UniProt P59665 66-94, looked up) [reference compound]”: the “activity against Candida albicans in fetal calf serum (FIG. 5c)” value in assay [1] (90% fetal calf serum) was “lose their ability to inactivate C. albicans”. The “gel formation in LAL test” value in assay [2] (2.5 μg peptide in 0.2 ml), in assay [2] (5 μg peptide in 0.2 ml) and in [2] (10 μg peptide in 0.2 ml) was “trace” throughout.

For “HNP-3: native human defensin [reference compound]”, the “gel formation in LAL test” value in [2] (10 μg peptide in 0.2 ml) was “no gel”.

Consider “HNP-4: native human defensin (VCSCRLVFCRRTELRVGNCLIGGVSFTYCCTRV; ends and bridges not checked; cysteine pairing not given here; UniProt P12838 64-96, looked up) [reference compound]”, for which the “gel formation in LAL test” value is on record as “trace” in assay [2] (2.5 μg peptide in 0.2 ml), “trace” in [2] (5 μg peptide in 0.2 ml) and “no gel” in assay [2] (10 μg peptide in 0.2 ml).

On to “R-G-G-G-L-C-Y-A-R-G-F-I-A-V-C-F-G-R (RGGGLCYARGFIAVCFGR-NH2; not fully specified; printed as R-G-G-G-L-C-Y-A-R-G-F-I-A-V-C-F-G-R; cysteine pairing not given here) [IB-216]”, for which the “minimal inhibitory concentration (MIC) Psa” value in assay [3] was determined as 14. Besides, the “minimal inhibitory concentration (MIC) MRSA” value in assay [4] came to 19. In addition, the “minimal inhibitory concentration (MIC) Candid” value in assay [5] was determined as 65.8. The “minimal inhibitory concentration (MIC) E. Co” value in [6] turned out to be 3.27.

Regarding “R-G-G-G-L-C-Y-A-R-G-W-I-A-F-C-V-G-R (RGGGLCYARGWIAFCVGR-NH2; cysteine pairing not given here) [IB-214]”, in [3], the “minimal inhibitory concentration (MIC) Psa” value is 0.59. For the same substance, the “minimal inhibitory concentration (MIC) MRSA” value in assay [4] came out at 2.1. In addition, the “minimal inhibitory concentration (MIC) Candid” value in assay [5] was found to be 32.6. Moreover, the “minimal inhibitory concentration (MIC) E. Co” value in assay [6] was determined as 0.81.

As for “R-G-G-G-L-C-Y-A-R-K-G-F-A-V-C-V-G-R (RGGGLCYARKGFAVCVGR-NH2; cysteine pairing not given here) [IB-227]”, in assay [3], the “minimal inhibitory concentration (MIC) Psa” value amounted to 0.01. Further, the “minimal inhibitory concentration (MIC) MRSA” value in assay [4] is listed as over 128. Moreover, the “minimal inhibitory concentration (MIC) E. Co” value in [6] turned out to be 2.65.

Regarding “R-G-G-G-L-C-Y-C-F-P-K-F-C-V-C-V-G-R (RGGGLCYCFPKFCVCVGR-NH2; cysteine pairing not given here) [IB-218]”, the “minimal inhibitory concentration (MIC) Psa” value in assay [3] is listed as 1.2. Besides, the “minimal inhibitory concentration (MIC) MRSA” value in assay [4] was found to be 3.48. Further, the “minimal inhibitory concentration (MIC) Candid” value in assay [5] was 15.96.

Turning to “R-G-G-G-L-C-Y-C-R-P-R-F-C-V-C-V-G-R-OH (RGGGLCYCRPRFCVCVGR-OH; cysteine pairing not given here) [IB-324]”, in assay [5], the “minimal inhibitory concentration (MIC) Candid” value is given as 17.7. The “minimal inhibitory concentration (MIC) E. Co” value in assay [6] is 3.51.

For the substance “R-G-G-G-L-C-Y-C-R-R-G-F-C-V-C-F-G-R (RGGGLCYCRRGFCVCFGR-NH2; cysteine pairing not given here) [IB-223]”, the “minimal inhibitory concentration (MIC) Psa” value in [3] is 0.14. In assay [4], the “minimal inhibitory concentration (MIC) MRSA” value is given as 1.93. In addition, in assay [5], the “minimal inhibitory concentration (MIC) Candid” value came to 1.62.

On to “R-G-G-G-L-C-Y-C-R-R-P-F-C-V-C-V-G-R (RGGGLCYCRRPFCVCVGR-NH2; cysteine pairing not given here) [IB-224]”, for which the “minimal inhibitory concentration (MIC) Psa” value in assay [3] is recorded as 0.06. Besides, in assay [4], the “minimal inhibitory concentration (MIC) MRSA” value is given as 3.1. The “minimal inhibitory concentration (MIC) Candid” value in assay [5] amounted to 7.69. In assay [6], the “minimal inhibitory concentration (MIC) E. Co” value was 0.15.

Take “R-G-G-G-L-C-Y-C-R-R-R-F-C-V-C-V-G-R-OH (RGGGLCYCRRRFCVCVGR-OH; cysteine pairing not given here) [IB-249]”: the “minimal inhibitory concentration (MIC) Candid” value in assay [5] amounted to 3.29. In addition, the “minimal inhibitory concentration (MIC) E. Co” value in assay [6] is listed as 0.4.

“R-G-G-G-L-C-Y-T-R-P-R-F-T-V-C-V-G-R (RGGGLCYTRPRFTVCVGR-NH2; cysteine pairing not given here) [IB-226]”: the “minimal inhibitory concentration (MIC) Psa” value in assay [3] was 0.07. Moreover, the “minimal inhibitory concentration (MIC) MRSA” value in [4] worked out at 8.7. Besides, the “minimal inhibitory concentration (MIC) E. Co” value in [6] amounted to 1.53.

As to “R-G-G-R-L-C-Y-A-R-R-R-F-A-V-C-V-G-R (RGGRLCYARRRFAVCVGR) [IB-289]”, in assay [3], the “minimal inhibitory concentration (MIC) Psa” value was determined as 0.05. For the same substance, the “minimal inhibitory concentration (MIC) Candid” value in assay [5] worked out at 1.6. Also, the “minimal inhibitory concentration (MIC) E. Co” value in [6] is reported as 0.4.

As to “R-G-G-R-L-C-Y-A-R-R-R-F-A-V-C-V-G-R-OH (RGGRLCYARRRFAVCVGR-OH; cysteine pairing not given here) [IB-288]”, the “minimal inhibitory concentration (MIC) Psa” value in [3] amounted to 0.05. In [5], the “minimal inhibitory concentration (MIC) Candid” value is 1.6. Besides, the “minimal inhibitory concentration (MIC) E. Co” value in [6] was 0.4.

With “R-G-G-R-L-C-Y-C-R-P-R-F-C-V-C-V-G-R (RGGRLCYCRPRFCVCVGR-NH2; cysteine pairing not given here) [PG-5]”, the “antimicrobial activity against C. albicans compared to synthetic PG-1 (FIGS. 11a-11c)” value in [1] was “comparable antimicrobial activity to PG-1”. The “antimicrobial activity against L. monocytogenes compared to synthetic PG-1 (FIGS. 11a-11c)” value in [7] was “comparable antimicrobial activity to PG-1”. In addition, the “antimicrobial activity against E. coli compared to synthetic PG-1 (FIGS. 11a-11c)” value in assay [8] is recorded as “comparable antimicrobial activity to PG-1”.

Regarding “R-G-G-R-L-C-Y-C-R-R-R-F-C-V-C-V-G-R (all †) ([dR]GG[dR][dL][dC][dY][dC][dR][dR][dR][dF][dC][dV][dC][dV]G[dR]-NH2; cysteine pairing not given here) [enantioPG-1]”, the “inhibition of growth of E. coli (FIG. 12a)” value in [8] (absence of protease) is reported as “equally effective”. Further, the “antibacterial effect in presence of protease (FIG. 12b)” value in assay [8] (trypsin or chymotrypsin, organism of FIG. 12b not stated) was “neither trypsin nor chymotrypsin inhibits the antibacterial effect”. Further, the “susceptibility of metronidazole-resistant clinical isolates” value in assay [9] is reported as “susceptible”.

As to “R-G-G-R-L-C-Y-C-R-R-R-F-C-V-C-V-G-R-OH (RGGRLCYCRRRFCVCVGR-OH; cysteine pairing not given here) [IB-247]”, the “minimal inhibitory concentration (MIC) Psa” value in assay [3] is 0.11. Also, the “minimal inhibitory concentration (MIC) MRSA” value in assay [4] stood at 1.5. The “minimal inhibitory concentration (MIC) Candid” value in assay [5] turned out to be 1.2. For the same substance, in assay [6], the “minimal inhibitory concentration (MIC) E. Co” value was determined as 0.6.

For the substance “R-G-G-R-V-C-Y-C-R-G-R-F-C-V-C-V (RGGRVCYCRGRFCVCV) [IB-400]”, the “minimal inhibitory concentration (MIC) Psa” value in assay [3] is 2. Further, the “minimal inhibitory concentration (MIC) MRSA” value in [4] came to 8.

Regarding “R-G-G-R-V-C-Y-C-R-G-R-F-C-V-C-V-G-R (RGGRVCYCRGRFCVCVGR) [IB-398]”, in assay [3], the “minimal inhibitory concentration (MIC) Psa” value came out at 1. Further, the “minimal inhibitory concentration (MIC) MRSA” value in [4] is 8.

“R-G-G-R-V-C-Y-C-R-G-R-F-C-V-C-V-OH (RGGRVCYCRGRFCVCV-OH; cysteine pairing not given here) [IB-401]”: the “minimal inhibitory concentration (MIC) Psa” value in assay [3] is reported as 1. In addition, the “minimal inhibitory concentration (MIC) MRSA” value in assay [4] came to 64.
